Test results taken from paper PMC5317004 (Scientific Reports, 2017).

Test system: chimeric α7-GluClβR
Assay: IVM added after activation by ACh: kinetics and extent of current decline (whole-cell patch clamp)
Type: cell-based, chick nAChR α7 / C. elegans GluClβ
Method: Following a further wash (for a minute), the same cell was challenged again with a 5-μM-IVM solution (in 0.01% DMSO; red bar, arrow and trace). Recordings were performed at −60 mV. (B) Time constant of current decline (τd). Values of τd were determined by exponential fits to the declining phase of the currents using Eq. 3. […] Error bars correspond to SEM of N = 6 and N = 5 cells for recordings at −60 mV and −20 mV, respectively. Paired, two-tailed Student’s t-tests indicate that for not significant (“ns”) P > 0.3, and ** 0.001 < P < 0.005.
Figure 8 The inhibition of ACh-elicited currents by addition of IVM is irreversible. […] (B) Representative currents for the same experiment as in A, but with the exception of IVM (0.5 μM) addition after the ACh-elicited current reached to its peak (IP1). Inset, magnification of the indicated segment of the current trace. In both panels A and B, black bars above the current traces indicate ACh or IVM applications. […] Error bars correspond to SEM. Unpaired, two-tailed Student’s t-tests indicate *** P < 0.0001.
The declining phase of the currents was fitted with an exponential time course to give the time constant of current decline by using equation 3, […]
I is the current, IP is the peak of the current, IS is the steady state current, t is the time, and τ is the time constant of current decline. […]
Supplementary Materials and Methods
The structural mo del of the chi meric α7-GluClβR was built based on th e methodologies published previously1,2, and the sequence of the chimeric subunit is presented in […]
DNA construct and preparation of cells for electrophysiological experiments The cDNA encoding the α7-GluClβ chimeric subunit was generated as described previously3, and was cloned into a pcDNA3.1 vector.
Chinese hamster ovary cells (CHO-K1, ATCC via Biological Industries Israel, Beit Haemek Ltd.) were cultured as performed previously2 in Dulbecco 's Modified E agle Med iu m (DMEM) containing 10% fetal calf serum (Biological Industries Israel Beit Haemek Ltd.), 2 mM glutamax, 100 Units/ml penicillin G and 100 μg/ml streptomycin, and grown in 5% CO2 at 37°C under 90-95% hu midity . CHO cells were seeded on glass coverslips (13-mm diameter) placed in a 24-multiwell plate. For the expression of the α7-GluClβR, cells were transiently transfected with the pcDNA3.1 plasmid containing the receptor’s ORF (200-600 ng per well) using transit-LT1 transfection reagent (Mirus, USA), according to the manufacturer’s protocol. pIRES-CD8 plas mid (200 ng per well) was also added to enable visualization of the ex pressing cells by beads coated with anti-CD8 antibodies (Invitrogen). For the expression of GluClβ ho mo mers, we used the pcDNA3.1 plas mid containing the GluClβ-subunit ORF (600-1000 ng per well), pIRES-CD8 plas mid (200 ng per well) and th e X-tremeGENE HP DNA Transfection Reagent (Roche Life Science). Recordings were performed 48-72 hours following transfection.
Whole-cell patch clamp recordings
Recordings were performed in the aforementioned CHO cells, as previously described1,2. Whole-cell patch clamp experiments were performed with normal external solution (NES) contained (in millimolar): 140 NaCl, 2.8 KCl, 2 CaCl2, 2 MgCl2, 10 glucose and 10 HEPES, adjusted to pH 7.35 with NaOH (310 mOsM). The pipette solution contained […]
(in millimolar): 130 KCl, 4 MgCl2, 4 Na2ATP, 1 EGTA and 10 HEPES, adjusted to pH 7.35 with KOH (290 mOsM). The osmolarity of these solutions was maintained by adding sucrose.
The electrode resistance was 6-10 MΩ when filled with the pipette solution. External solutions were applied onto the cell by using the VC-77SP fast-step system (Warner Instruments, CT, USA) combined with N2 pressure of 3-4 psi to produce laminar flow of the external solution onto the patched cell. All measurements were performed at 25 °C. The currents w ere measured with an Axopatch 200B patch-clamp amplifier (Molecular Devices, Sunnyvale, CA) and a Digidata 1440A interface (Molecular Devices). […]

[1] = 30 μM ACh + 0.5 μM IVM, 9.6 sec, N = 10

CC[C@H](C)[C@H]1O[C@]2(CC[C@@H]1C)C[C@@H]1C[C@@H](C/C=C(\C)[C@@H](O[C@H]3C[C@H](OC)[C@@H](O[C@H]4C[C@H](OC)[C@@H](O)[C@H](C)O4)[C@H](C)O3)[C@@H](C)/C=C/C=C3\CO[C@@H]4[C@H](O)C(C)=C[C@@H](C(=O)O1)[C@]34O)O2 [IVM, Ivermectin]
reduction of time constant of current decline (τd) (5 μM IVM added after peak of 350 μM ACh response, −60 mV and −20 mV): more than two folds
τd1 amplitude percentage (%A) (30 μM ACh + 0.5 μM IVM): 55 ± 10%
τd2 amplitude percentage (%A) (30 μM ACh + 0.5 μM IVM): 45 ± 10%
τd1, time constant of current decline [1]: 3370 ± 318 ms
τd2, time constant of current decline [1]: 987 ± 120 ms
time between the start of application and the onset of effect (six experiments as in Fig. 5A, 350 μM ACh, 5 μM IVM): 132 ± 24 milliseconds
